Measured values reported in patent publication US20230257354A1, “NOVEL HETEROCYCLIC COMPOUNDS” (Hoffmann-La Roche Inc., priority 2020, published 2023).
Structures can show the parent of a compound that is named as a salt.

Tested on: Acinetobacter baumannii ATCC17978
Assay: Antimicrobial susceptibility testing, 90% growth inhibitory concentration (IC90) determination, ATCC17978
Format: cell-based
Conditions: Iso-Sensitest broth, OD 600 nm over 16 h, 35±2° C., read-out: ATCC 17978 IC90
Protocol: Antimicrobial Susceptibility Testing: 90% Growth Inhibitory Concentration (IC90) Determination The in vitro antimicrobial activity of the compounds was determined according to the following procedure: The assay used a 10-points Iso-Sensitest broth medium to measure quantitatively the in vitro activity of the compounds against Acinetobacter baumannii ATCC17978 or ATCC17961. Stock compounds in DMSO were serially twofold diluted (e.g. range from 50 to 0.097 μM final concentration) in 384 wells microtiter plates and inoculated with 49 μl the bacterial suspension in Iso-Sensitest medium to have a final cell concentration of ˜5×10^(5) CFU/ml in a final volume/well of 50 ul/well. Microtiter plates were incubated at 35±2° C. Bacterial cell growth was determined with the measurement of optical density at X=600 nm each 20 minutes over a time course of 16 h. Growth inhibition was calculated during the logarithmic growth of the bacterial cells with determination of the concentration inhibiting 50% (IC50) and 90% (IC90) of the growth. Table 1 provides the 90% growth inhibitory concentrations (IC90) in micromoles per liter of the compounds of present invention obtained against the strain Acinetobacter baumannii ATCC17978.

Row | IC90 [µM] | Structure (SMILES)
1 | 0.098 | COc1ccc(-c2cnc(C(=O)Nc3ccc(C(=O)N[C@H]4C[C@@H](C(=O)N[C@H]5C[C@@H](N)C5)C4)c(Cl)c3)n2C)c(F)c1F [Example B21, N-[4-[[3-[(3-aminocyclobutyl)carbamoyl]cyclobutyl]carbamoyl]-3-chloro-phenyl]-5-(2,3-difluoro-4-methoxy-phenyl)-1-methyl-imidazole-2-carboxamide;2,2,2-trifluoroacetic acid]
2 | 1.1 | Cn1c(-c2ccc(OCC#N)c(F)c2F)cnc1C(=O)Nc1ccc(C(=O)NCCNC(=O)[C@H]2CCNC[C@H]2O)c(Cl)c1 [Example B33, (3S,4S)-N-[2-[[2-chloro-4-[[5-[4-(cyanomethoxy)-2,3-difluoro-phenyl]-1-methyl-imidazole-2-carbonyl]amino]benzoyl]amino]ethyl]-3-hydroxy-piperidine-4-carboxamide;formic acid]
3 | 0.073 | COc1ccc(-c2cnc(C(=O)Nc3ccc(C(=O)N[C@H]4C[C@@H](NC(=O)[C@H]5CCNC[C@H]5O)C4)c(Cl)c3)n2C)c(F)c1F [Example B42, (3S,4S)-N-[3-[[2-chloro-4-[[5-(2,3-difluoro-4-methoxy-phenyl)-1-methyl-imidazole-2-carbonyl]amino]benzoyl]amino]cyclobutyl]-3-hydroxy-piperidine-4-carboxamide;formic acid]
4 | 0.61 | COc1ccc(-c2cnc(C(=O)Nc3ccc(C(=O)NCCNC(=O)N[C@H]4CNC[C@@H]4O)c(C)c3)n2C)c(F)c1F [Example B29, 5-(2,3-difluoro-4-methoxy-phenyl)-N-[4-[2-[[(3S,4S)-4-hydroxypyrrolidin-3-yl]carbamoylamino]ethylcarbamoyl]-3-methyl-phenyl]-1-methyl-imidazole-2-carboxamide;formic acid]
5 | 0.2 | COc1ccc(-c2cnc(C(=O)Nc3ccc(C(=O)NC4CCN(C(=O)CCOCCN)C4)c(Cl)c3)n2C)c(F)c1F (centres unmarked) [Example B4, N-[4-[[1-[3-(2-aminoethoxy)propanoyl]pyrrolidin-3-yl]carbamoyl]-3-chloro-phenyl]-5-(2,3-difluoro-4-methoxy-phenyl)-1-methyl-imidazole-2-carboxamide;formic acid]
6 | 1.2 | Cn1c(-c2ccc(OCC#N)c(F)c2F)cnc1C(=O)Nc1ccc(C(=O)NCCNC(=O)[C@@H]2CCNC[C@@H]2O)c(Cl)c1 [Example B32, (3R,4R)-N-[2-[[2-chloro-4-[[5-[4-(cyanomethoxy)-2,3-difluoro-phenyl]-1-methyl-imidazole-2-carbonyl]amino]benzoyl]amino]ethyl]-3-hydroxy-piperidine-4-carboxamide;formic acid]
7 | 1 | Cc1cc(NC(=O)c2ncc(-c3ccc(OCC#N)c(F)c3F)n2C)ccc1C(=O)NCCNC(=O)[C@H]1C[C@@](C)(O)CN1 [Example B24, 5-[4-(cyanomethoxy)-2,3-difluoro-phenyl]-N-[4-[2-[[(2R,4R)-4-hydroxy-4-methyl-pyrrolidine-2-carbonyl]amino]ethylcarbamoyl]-3-methyl-phenyl]-1-methyl-imidazole-2-carboxamide;formic acid]
8 | 0.36 | Cn1c(-c2ccc(OCC#N)c(F)c2F)cnc1C(=O)Nc1ccc(C(=O)NCCNC(=O)C2CCNCC2)c(Cl)c1 [Example B15, N-[2-[[2-chloro-4-[[5-[4-(cyanomethoxy)-2,3-difluoro-phenyl]-1-methyl-imidazole-2-carbonyl]amino]benzoyl]amino]ethyl]piperidine-4-carboxamide;2,2,2-trifluoroacetic acid]
9 | 0.21 | COc1ccc(-c2cnc(C(=O)Nc3ccc(C(=O)N[C@H]4C[C@@H](NC(=O)C5CC(CN)C5)C4)c(Cl)c3)n2C)c(F)c1F (some centres unmarked) [Example B9, N-[4-[[3-[[3-(aminomethyl)cyclobutanecarbonyl]amino]cyclobutyl]carbamoyl]-3-chloro-phenyl]-5-(2,3-difluoro-4-methoxy-phenyl)-1-methyl-imidazole-2-carboxamide;formic acid]
10 | 0.51 | COc1ccc(-c2cnc(C(=O)Nc3ccc(C(=O)NCCNC(=O)N[C@@H]4CNC[C@H]4O)c(C)c3)n2C)c(F)c1F [Example B28, 5-(2,3-difluoro-4-methoxy-phenyl)-N-[4-[2-[[(3R,4R)-4-hydroxypyrrolidin-3-yl]carbamoylamino]ethylcarbamoyl]-3-methyl-phenyl]-1-methyl-imidazole-2-carboxamide;formic acid]
11 | 0.084 | COc1ccc(-c2cnc(C(=O)Nc3ccc(C(=O)NC4CN(C(=O)CN)C4)c(Cl)c3)n2C)c(F)c1F [Example B17, N-[4-[[1-(2-aminoacetyl)azetidin-3-yl]carbamoyl]-3-chloro-phenyl]-5-(2,3-difluoro-4-methoxy-phenyl)-1-methyl-imidazole-2-carboxamide;formic acid]
12 | 0.14 | COc1ccc(-c2cnc(C(=O)Nc3ccc(C(=O)NC4CCN(C(=O)CCOCCN)CC4)c(Cl)c3)n2C)c(F)c1F [Example B8, N-[4-[[1-[3-(2-aminoethoxy)propanoyl]-4-piperidyl]carbamoyl]-3-chloro-phenyl]-5-(2,3-difluoro-4-methoxy-phenyl)-1-methyl-imidazole-2-carboxamide;formic acid]
13 | 0.082 | COc1ccc(-c2cnc(C(=O)Nc3ccc(C(=O)NC4CCN(C(=O)[C@@H]5C[C@@H](O)CN5)CC4)c(Cl)c3)n2C)c(F)c1F [Example B7, N-[3-chloro-4-[[1-[(2S,4R)-4-hydroxypyrrolidine-2-carbonyl]-4-piperidyl]carbamoyl]phenyl]-5-(2,3-difluoro-4-methoxy-phenyl)-1-methyl-imidazole-2-carboxamide]
14 | 1.7 | Cn1c(-c2ccc(OCC#N)c(F)c2F)cnc1C(=O)Nc1ccc(C(=O)NCCNC(=O)[C@@H]2CCNC[C@H]2O)c(Cl)c1 [Example B34, (3S,4R)-N-[2-[[2-chloro-4-[[5-[4-(cyanomethoxy)-2,3-difluoro-phenyl]-1-methyl-imidazole-2-carbonyl]amino]benzoyl]amino]ethyl]-3-hydroxy-piperidine-4-carboxamide;formic acid]

Continued, molecule first:

Row | Structure (SMILES) | IC90 [µM]
15 | CCc1cc(NC(=O)c2ncc(-c3ccc(OC(C)C)c(F)c3)n2C)ccc1C(=O)NCCOCCN [Example A15, N-[4-[2-(2-aminoethoxy)ethylcarbamoyl]-3-ethyl-phenyl]-5-(3-fluoro-4-isopropoxy-phenyl)-1-methyl-imidazole-2-carboxamide;hydrochloride] | 4.5
16 | COc1ccc(-c2cnc(C(=O)Nc3ccc(C(=O)NCCCCCN(C)C)c(Cl)c3)n2C)c(F)c1F [Example A26, N-[3-chloro-4-[5-(dimethylamino)pentylcarbamoyl]phenyl]-5-(2,3-difluoro-4-methoxy-phenyl)-1-methyl-imidazole-2-carboxamide] | 0.2
17 | COc1ccc(-c2cnc(C(=O)Nc3ccc(C(=O)NC4CCN(C(=O)CN(C)C)CC4)c(Cl)c3)n2C)c(F)c1F [Example A25, N-[3-chloro-4-[[1-[2-(dimethylamino)acetyl]-4-piperidyl]carbamoyl]phenyl]-5-(2,3-difluoro-4-methoxy-phenyl)-1-methyl-imidazole-2-carboxamide] | 0.13
18 | Cc1cc(NC(=O)c2ncc(-c3ccc(OCC#N)c(F)c3F)n2C)ccc1C(=O)NCCCN1CCNCC1 [Example A12, 5-[4-(cyanomethoxy)-2,3-difluoro-phenyl]-1-methyl-N-[3-methyl-4-(3-piperazin-1-ylpropylcarbamoyl)phenyl]imidazole-2-carboxamide;2,2,2-trifluoroacetic acid] | 0.34
19 | Cn1c(-c2ccc(OCC#N)c(F)c2F)cnc1C(=O)Nc1ccc(C(=O)NCCN2CCNCC2)c(Cl)c1 [Example A10, N-[3-chloro-4-(2-piperazin-1-ylethylcarbamoyl)phenyl]-5-[4-(cyanomethoxy)-2,3-difluoro-phenyl]-1-methyl-imidazole-2-carboxamide;2,2,2-trifluoroacetic acid] | 0.36
20 | CCc1cc(NC(=O)c2ncc(-c3c(F)cc(OC)cc3F)n2C)ccc1C(=O)NCCOCCN [Example A18, N-[4-[2-(2-aminoethoxy)ethylcarbamoyl]-3-ethyl-phenyl]-5-(2,6-difluoro-4-methoxy-phenyl)-1-methyl-imidazole-2-carboxamide;hydrochloride] | 1.2
21 | COc1ccc(-c2cnc(C(=O)Nc3ccc(C(=O)NC4CCN(C(=O)CN(C)C)C4)c(Cl)c3)n2C)c(F)c1F (centres unmarked) [Example A23, N-[3-Chloro-4-[[1-[2-(dimethylamino)acetyl]pyrrolidin-3-yl]carbamoyl]phenyl]-5-(2,3-difluoro-4-methoxy-phenyl)-1-methyl-imidazole-2-carboxamide] | 0.22
22 | CCc1cc(NC(=O)c2ncc(-c3ccc(OC)cc3Cl)n2C)ccc1C(=O)NCCOCCN [Example A16, N-[4-[2-(2-aminoethoxy)ethylcarbamoyl]-3-ethyl-phenyl]-5-(2-chloro-4-methoxy-phenyl)-1-methyl-imidazole-2-carboxamide;hydrochloride] | 1.5
23 | CCc1cc(NC(=O)c2ncc(-c3ccc(OCC#N)c(F)c3F)n2C)ccc1C(=O)NCCOCCN [Example A20, N-[4-[2-(2-aminoethoxy)ethylcarbamoyl]-3-ethyl-phenyl]-5-[4-(cyanomethoxy)-2,3-difluoro-phenyl]-1-methyl-imidazole-2-carboxamide;hydrochloride] | 0.96
